Source: patent US20250145564A1, “SULFONYLUREA COMPOUND, PREPARATION METHOD THEREFOR, AND APPLICATION THEREOF” (SHANGHAI INSTITUTE OF MATERIA MEDICA, CHINESE ACADEMY OF …, priority 2021, published 2025)

These molecules were tested on mice with chronic heart failure (TAC) (assay: TAC mouse model, comparison of I-23 and Empagliflozin). Details: mice, daily gavage eight weeks; I-23 0.44 mg/kg; Empagliflozin 10 mg/kg.
Type: in vivo
From the text: 12-week-old male C57BL/6 mice, which were purchased from Gempharmatech Co., Ltd, were raised in the SPF animal house of Tongji Medical College, Huazhong University of Science and Technology. After one week of acclimatization in the animal house, the mice were subjected to thoracic aortic constriction as the TAC group. Another group of mice were subjected to thoracotomy without ligation of thoracic aorta as Sham group. Meanwhile, AUDA was used as the positive control.
Cardiac ultrasound detection was performed on a Visual Sonics Vevo 2100 small animal ultrasound imager. The major measurement indicators include heart rate (HR), left ventricular ejection fraction (LVEF), left ventricular fractional shortening (LVFS), left ventricular internal dimension-diastole (LVIDd) and left ventricular internal dimension-systole (LVIDs), and left ventricular posterior wall thickness (LVPWd and LVPWs).
The detection was performed on a Millar pressure-volume system from Millar Instr Ment PowerLab. After the animals were anesthetized to an appropriate extent, a midline incision was made in the neck, the right common carotid artery was separated, ligated at the distal end and clipped at the proximal end. A V-shaped incision was made on the artery with microscissors, and a microcatheter was inserted to the left ventricle. Signals were recorded through a conduction system to obtain hemodynamic data such as heart rate (HR), left ventricular end diastolic pressure (PED), left ventricular end systolic pressure (PES), maximum rate of decrease in left ventricular pressure (−dp/dtmin), and maximum rate of increase in left ventricular pressure (+dP/dtmax).
The myocardial tissue was placed in an embedding frame, soaked and fixed in neutral formaldehyde solution, dehydrated, and embedded in paraffin. The paraffin block was then sliced into sections with a thickness of 4 μm on a microtome. The general appearance of the myocardium was observed through HE staining, and the myocardial fibrosis was observed through Sirius red staining.
Total RNA was extracted using Invitrogen's Trizol reagent, then cDNA was obtained using TAKARA's reverse transcription kit, and finally the mRNA content of related genes was amplified with specific primers.
Cardiac ultrasound examination was performed two weeks after TAC surgery. 24 TAC mice with no significant difference in cardiac function were selected and randomly divided into a model group (TAC) and a treatment group (TAC+compound). The model group received no other treatment, while the treatment group received daily gavage (0.44 mg/kg for I-23 or 10 mg/kg for Empagliflozin). Eight weeks later, i.e., at the chronic heart failure phase, the animals were sacrificed, and tissue specimens were collected to perform the above detections.
This experiment was to compare the ameliorative effects of I-23 and Empagliflozin on chronic heart failure.
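Wherever IC50 is given: enzyme preincubated with compound 30 min at 25 °C, then substrate added and fluorescence read after 15 min at 25 °C, 320 nm and 460 nm, versus DMSO negative control.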

`OC[C@H]1O[C@@H](c2ccc(Cl)c(Cc3ccc(O[C@H]4CCOC4)cc3)c2)[C@H](O)[C@@H](O)[C@@H]1O` [Empagliflozin, reference compound] was tested, and the “cardiac hypertrophy (heart photographs, heart weight/tibia length HW/TL)” value was “reversal effect”.

`OC[C@H]1O[C@@H](c2ccc(Cl)c(Cc3ccc(O[C@H]4CCOC4)cc3)c2)[C@H](O)[C@@H](O)[C@@H]1O` [Empagliflozin, reference compound] was tested, and the “expression of BNP in mouse cardiomyocytes after TAC” value was “can inhibit this effect”.

`OC[C@H]1O[C@@H](c2ccc(Cl)c(Cc3ccc(O[C@H]4CCOC4)cc3)c2)[C@H](O)[C@@H](O)[C@@H]1O` [Empagliflozin, reference compound] was tested, and the “impaired cardiac function (EF value, FS value, LVIDs, dp/dt)” value was “can inhibit this effect”.

In the case of `OC[C@H]1O[C@@H](c2ccc(Cl)c(Cc3ccc(O[C@H]4CCOC4)cc3)c2)[C@H](O)[C@@H](O)[C@@H]1O` [Empagliflozin, reference compound], the “positive area of Sirius red staining (myocardial fibrosis)” value is reported as “can inhibit this effect”.

The molecules below were run against T1, sEH (human recombinant) (Homo sapiens, UniProt P34913) (assay: sEH inhibition assay (fluorescence)). Details: not given.
T1 sequence (P34913 1-555): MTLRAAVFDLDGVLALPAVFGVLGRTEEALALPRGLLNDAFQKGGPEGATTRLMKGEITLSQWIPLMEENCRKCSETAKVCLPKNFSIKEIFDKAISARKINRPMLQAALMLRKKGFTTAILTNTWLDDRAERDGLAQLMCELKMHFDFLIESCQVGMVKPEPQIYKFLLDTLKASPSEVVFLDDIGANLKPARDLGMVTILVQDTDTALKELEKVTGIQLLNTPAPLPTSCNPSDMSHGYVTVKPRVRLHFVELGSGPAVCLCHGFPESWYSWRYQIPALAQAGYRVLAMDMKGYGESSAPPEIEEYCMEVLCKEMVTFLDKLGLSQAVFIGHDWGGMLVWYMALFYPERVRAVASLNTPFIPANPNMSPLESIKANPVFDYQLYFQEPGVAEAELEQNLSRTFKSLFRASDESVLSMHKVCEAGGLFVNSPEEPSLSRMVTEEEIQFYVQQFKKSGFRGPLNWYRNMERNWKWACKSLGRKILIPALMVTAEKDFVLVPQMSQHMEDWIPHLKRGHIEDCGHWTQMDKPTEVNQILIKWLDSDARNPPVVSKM

`COc1ccc2c(c1)C(=O)N(CCc1ccc(S(=O)(=O)N(C)C(=O)NC3CCCCC3)cc1)C(=O)C2(C)C` [Compound I-2] and `COc1ccc(Cl)cc1C(=O)NCCc1ccc(S(=O)(=O)N(C)C(=O)NC2CCCCC2)cc1` [Compound I-3] cannot be ordered by IC50: less than 0.2 µM for the first, less than 0.2 µM for the second.

First: CC(=O)c1ccc(S(=O)(=O)N(C)C(=O)NC2CCCCC2)cc1 [Compound I-5]
Second: Cc1cnc(C(=O)NCCc2ccc(S(=O)(=O)N(C)C(=O)NC3CCCCC3)cc2)cn1 [Compound I-32]
The IC50 of the first is lower: 0.2 to 1 µM for the first, 1 to 10 µM for the second. The first is the more potent here.

`C=CCN(C(=O)N[C@H]1CC[C@H](C)CC1)S(=O)(=O)c1ccc(CCNC(=O)N2CC(C)=C(CC)C2=O)cc1` [Compound I-6] and `CCC1=C(C)CN(C(=O)NCCc2ccc(S(=O)(=O)N(CC)C(=O)N[C@H]3CC[C@H](C)CC3)cc2)C1=O` [Compound I-37] fall in the same range of IC50: 1 to 10 µM for the first, 1 to 10 µM for the second.

`Cc1ccc(S(=O)(=O)N(C(=O)NN2CC3CCCC3C2)C(C)C)cc1` (stereo not drawn) [Compound I-7] and `Cc1ccc(S(=O)(=O)N(C)C(=O)NN2CCCCCC2)cc1` [Compound I-33] fall in the same range of IC50: 1 to 10 µM for the first, 1 to 10 µM for the second.

`CCC1=C(C)CN(C(=O)NCCc2ccc(S(=O)(=O)N(C(=O)N[C@H]3CC[C@H](C)CC3)C3CC3)cc2)C1=O` [Compound I-8] and `CCC1=C(C)CN(C(=O)NCCc2ccc(S(=O)(=O)N(C(=O)N[C@H]3CC[C@H](C)CC3)C(C)C)cc2)C1=O` [Compound I-38] fall in the same range of IC50: 1 to 10 µM for the first, 1 to 10 µM for the second.

First: CCC1=C(C)CN(C(=O)NCCc2ccc(S(=O)(=O)N(C)C(=O)N[C@H]3CC[C@H](CO)CC3)cc2)C1=O [Compound I-9]
Second: CCC1=C(C)CN(C(=O)NCCc2ccc(S(=O)(=O)N(C)C(=O)NC3CCC(CC)CC3)cc2)C1=O (stereo not drawn) [Compound I-34]
The IC50 of the first is lower: 0.2 to 1 µM for the first, 1 to 10 µM for the second.

Compared with `CCNC(=O)OC[C@H]1CC[C@H](NC(=O)NS(=O)(=O)c2ccc(CCNC(=O)N3CC(C)=C(CC)C3=O)cc2)CC1` [Compound I-10], `CCC(=O)OC[C@H]1CC[C@H](NC(=O)NS(=O)(=O)c2ccc(CCNC(=O)N3CC(C)=C(CC)C3=O)cc2)CC1` [Compound I-39] is higher in IC50: 0.2 to 1 µM for the first, 1 to 10 µM for the second. The first is the more potent here.

First: CCNC(=O)OC[C@H]1CC[C@H](NC(=O)N(C)S(=O)(=O)c2ccc(CCNC(=O)N3CC(C)=C(CC)C3=O)cc2)CC1 [Compound I-11]
Second: CCC(=O)OC[C@H]1CC[C@H](NC(=O)N(C)S(=O)(=O)c2ccc(CCNC(=O)N3CC(C)=C(CC)C3=O)cc2)CC1 [Compound I-40]
The IC50 of the first is lower: less than 0.2 µM for the first, 1 to 10 µM for the second. The first is the more potent here.

Compared with `CCC1=C(C)CN(C(=O)NCCc2ccc(S(=O)(=O)NC(=O)N[C@H]3CC[C@H](COC(=O)NC4CC4)CC3)cc2)C1=O` [Compound I-12], `CCC1=C(C)CN(C(=O)NCCc2ccc(S(=O)(=O)NC(=O)N[C@H]3CC[C@H](COC(=O)C(C)C)CC3)cc2)C1=O` [Compound I-41] is higher in IC50: 0.2 to 1 µM for the first, 1 to 10 µM for the second. The first is the more potent here.

`CCC1=C(C)CN(C(=O)NCCc2ccc(S(=O)(=O)NC(=O)N[C@H]3CC[C@H](COC(=O)Nc4ccc(OC(F)(F)F)cc4)CC3)cc2)C1=O` [Compound I-13] and `CCC1=C(C)CN(C(=O)NCCc2ccc(S(=O)(=O)NC(=O)N[C@H]3CC[C@H](COC(=O)C(C)(C)C)CC3)cc2)C1=O` [Compound I-43] fall in the same range of IC50: 1 to 10 µM for the first, 1 to 10 µM for the second.

First: CCC1=C(C)CN(C(=O)NCCc2ccc(S(=O)(=O)NC(=O)N[C@H]3CC[C@H](COC(=O)CN(C)C)CC3)cc2)C1=O [Compound I-14]
Second: CCC1=C(C)CN(C(=O)NCCc2ccc(S(=O)(=O)NC(=O)N[C@H]3CC[C@H](COC)CC3)cc2)C1=O [Compound I-25]
The IC50 of the first is higher: 10 to 100 µM for the first, 0.2 to 1 µM for the second.

First: CCC1=C(C)CN(C(=O)NCCc2ccc(S(=O)(=O)NC(=O)N[C@H]3CC[C@H](COC(=O)CN4CCCCC4)CC3)cc2)C1=O [Compound I-16]
Second: CCC1=C(C)CN(C(=O)NCCc2ccc(S(=O)(=O)NC(=O)NC3CCC(C(=O)OC)CC3)cc2)C1=O (stereo not drawn) [Compound I-26]
The IC50 of the first is lower: 0.2 to 1 µM for the first, 1 to 10 µM for the second. The first is the more potent here.

Compared with `CCC1=C(C)CN(C(=O)NCCc2ccc(S(=O)(=O)NC(=O)N[C@H]3CC[C@H](C(=O)OC(C)OC(=O)OC4CCCCC4)CC3)cc2)C1=O` (stereo partly drawn) [Compound I-17], `CCC1=C(C)CN(C(=O)NCCc2ccc(S(=O)(=O)NC(=O)NC3CCC(C(=O)NC)CC3)cc2)C1=O` (stereo not drawn) [Compound I-29] is lower in IC50: 10 to 100 µM for the first, 1 to 10 µM for the second.

`CCC1=C(C)CN(C(=O)NCCc2ccc(S(=O)(=O)NC(=O)N[C@H]3CC[C@H](COP(=O)(OCOC(=O)OC(C)C)OCOC(=O)OC(C)C)CC3)cc2)C1=O` [Compound I-18] and `CCC1=C(C)CN(C(=O)NCCc2ccc(S(=O)(=O)N(C)C(=O)N[C@H]3CC[C@H](COCP(=O)(OCOC(=O)OC(C)C)OCOC(=O)OC(C)C)CC3)cc2)C1=O` [Compound I-21] fall in the same range of IC50: 10 to 100 µM for the first, 10 to 100 µM for the second.

`CCC1=C(C)CN(C(=O)NCCc2ccc(S(=O)(=O)NC(=O)N[C@H]3CC[C@H](CO[P@](=O)(N[C@@H](C)C(=O)OC(C)C)Oc4ccccc4)CC3)cc2)C1=O` [Compound I-19] and `CCC1=C(C)CN(C(=O)NCCc2ccc(S(=O)(=O)N(C)C(=O)N[C@H]3CC[C@H](CO[P@](=O)(N[C@@H](C)C(=O)OC(C)C)Oc4ccccc4)CC3)cc2)C1=O` [Compound I-22] fall in the same range of IC50: 10 to 100 µM for the first, 10 to 100 µM for the second.

`CCC1=C(C)CN(C(=O)NCCc2ccc(S(=O)(=O)N(C)C(=O)N[C@H]3CC[C@H](COC(C)=O)CC3)cc2)C1=O` [Compound I-24] and `CCC1=C(C)CN(C(=O)NCCc2ccc(S(=O)(=O)N(C)C(=O)N[C@H]3CC[C@H](COC(=O)C(C)C)CC3)cc2)C1=O` [Compound I-42] fall in the same range of IC50: 1 to 10 µM for the first, 1 to 10 µM for the second.

Compared with `CCC1=C(C)CN(C(=O)NCCc2ccc(S(=O)(=O)N(C)C(=O)NC3CCC(C(=O)O)CC3)cc2)C1=O` (stereo not drawn) [Compound I-27], `CCC1=C(C)CN(C(=O)NCCc2ccc(S(=O)(=O)N(C)C(=O)N[C@H]3CC[C@H](COC(=O)C(C)(C)C)CC3)cc2)C1=O` [Compound I-44] is lower in IC50: 10 to 100 µM for the first, 1 to 10 µM for the second.

Compared with `CCCC1=C(C)CN(C(=O)NCCc2ccc(S(=O)(=O)NC(=O)NC3CCC(C(=O)OC)CC3)cc2)C1=O` (stereo not drawn) [Compound I-30], `CCC1=C(C)CN(C(=O)NCCc2ccc(S(=O)(=O)NC(=O)N[C@H]3CC[C@H](OC(N)=O)CC3)cc2)C1=O` [Compound I-31] is lower in IC50: 10 to 100 µM for the first, 1 to 10 µM for the second. The second is the more potent here.

`Cc1cc(C(=O)NCCc2ccc(S(=O)(=O)N(C)C(=O)NN3CCCCCC3)cc2)no1` [Compound I-35] and `Cc1ccc(S(=O)(=O)N(C)C(=O)NC2[C@@H](O)C3(C)CC[C@@H]2C3(C)C)cc1` (stereo partly drawn) [Compound I-36] fall in the same range of IC50: 1 to 10 µM for the first, 1 to 10 µM for the second.
